One test relates to line DC-3F/AD. The test is described as follows: Flow cytometry: intracellular accumulation of adriamycin by cells of the line DC-3F/AD. Format: cell-based, Chinese hamster. Particulars: ADR 50 μM, 5 hours.
Another test relates to Plasmodium falciparum. Particulars: resistance to chloroquine; cited from earlier work.
A further test relates to resistant line P/388/VCR. The test is described as follows: Antitumour activity in vivo: increase in antitumour activity of vincristine on murine leukaemia P 388/VCR. More on the design: species or system murine; female B6D2Fl mice. The note with it: with vincristine […] i.p., no compound: 146 ± 2. The text has this:
This study was completed by an in vivo study, using a murine leukaemia resistant to vincristine (P/388/VCR) and using the compounds in association with vincristine.
The sensitive parent line P 388 (murine leukaemia) and the sub-line resistant to vincristine, P 388/VCR, were supplied by NCI (Frederick, USA). The tumour cells (10^6 cells) were inoculated on day 0 into the intraperitoneal cavity of female B6D2Fl mice (Iffa Credo, France) weighing from 18 to 20 g (groups of 8 to 10 animals).
Every day for 4 days, starting from day 1, the animals received: […]
30 to 60 minutes later, an administration by the i.p. route of 0.25 mg/kg of vincristine (used as a reference antitumour agent).
The tumour activity is expressed as follows: [formula]
The values are mean values obtained in independent experiments (± sem when n is greater than or equal to 3).

SMILES strings stand for the structures.

Take `COc1ccc(CCN(C)CCCC(C#N)(c2ccc(OC)c(OC)c2)C(C)C)cc1OC` (stereo not shown) [verapamil, reference compound]: the “VAR-MEAN (increase in ADR fluorescence), line DC-3F/AD” value is reported as 2.1 with line DC-3F/AD (1.0 μM compound), 5.6 in the test on line DC-3F/AD (5.0 μM compound), 8.9 in the test on line DC-3F/AD (10 μM compound) and 4.0 in the test with line DC-3F/AD ([…] compound). Moreover, the “sensitivity of a chloroquine-resistant line” value in the test on Plasmodium falciparum was “restores the sensitivity of a resistant line”. Further, the T/C % in the test with resistant line P/388/VCR (50 mg/kg i.p. daily for 4 days, ± sem) was 164%; with resistant line P/388/VCR (75 mg/kg i.p. daily for 4 days) it was 177%.

The values are drawn from US5238936A, “Trisubstituted triazines” (Adir et Compagnie, priority 1991, dated 1993).
